One data set deals with testis weight. The data set can be described thus: Effect on testis weight in male mice. It counts as in vivo, mouse (BDF1). Set-up: decrease in testis weight: dose or concentration left out as unconfirmed. Particulars: 5 days on/2 days off, 5 weeks, vs saline control. As for the experimental part:
The compounds of the invention are also effective in reducing or inhibiting male fertility, wherein administration of a compound of the invention to a male mammal is effective to reduce the potency of the male's semen, thereby reducing or blocking fertilization. Triptolide succinate (YM-262) was tested for inhibition of fertility in male BDF1 mice, according to protocols described in Example 15. The compound was administered intraperitoneally (IP) in a saline solution, using a cycle of daily administration for 5 days followed by a two day cessation of treatment. […] The cycle was repeated for 5 weeks before evaluation of physiological effects (testis weight) and reproductive performance.
Triptolide succinate (YM-262) was tested for fertility control in male BDF1 mice, using a cycle of daily administration for 5 days followed by a two day cessation of treatment. The cycle was repeated for 5 weeks, with dosing on days 0-4, 7-11, 14-18, 21-25 and 28-32 before evaluation of physiological effects and reproductive performance. […]
On day 32, five to six mice from each dosing group were sacrificed, and the testes were removed and stored in formalin for histological analysis and weight determination. The average of both testes was calculated for each mouse, and the mean and standard error of the mean (S.E.) were determined.

Another data set has as its system male fertility. The data set is described as follows: Effect on fertility in male mice. It counts as in vivo, mouse (BDF1). As to the method: The compounds of the invention are also effective in reducing or inhibiting male fertility, wherein administration of a compound of the invention to a male mammal is effective to reduce the potency of the male's semen, thereby reducing or blocking fertilization. Triptolide succinate (YM-262) was tested for inhibition of fertility in male BDF1 mice, according to protocols described in Example 15. The compound was administered intraperitoneally (IP) in a saline solution, using a cycle of daily administration for 5 days followed by a two day cessation of treatment. Dose levels were 0.04 or 0.13 mg/kg/day. The cycle was repeated for 5 weeks before evaluation of physiological effects (testis weight) and reproductive performance.
The effect of the compound on fertility was tested with groups of five male mice treated according to the same schedule. Each male was housed with two females starting on day 32, after termination of YM-262 treatment.
Triptolide succinate (YM-262) was tested for fertility control in male BDF1 mice, using a cycle of daily administration for 5 days followed by a two day cessation of treatment. The cycle was repeated for 5 weeks, with dosing on days 0-4, 7-11, 14-18, 21-25 and 28-32 before evaluation of physiological effects and reproductive performance.
A dosing solution of YM-262 was prepared once a week from a stock solution in saline at 1.0 mg/ml and stored at 4° C. […]

Data set [1] can be described thus: Stability in water (D2O) by 1H NMR. It counts as physicochemical. To be noted: room temperature, Succinate Sodium Salt. As to the method:
Sodium triptolide succinate, designated YM-274, was dissolved in D2 O, and the aqueous solution was stored at room temperature.
A solution of sodium triptolide succinate (YM-274) in D2 O was prepared at a concentration of 3 mg/ml and stored at room temperature. The solution was analyzed by ^1 H NMR at intervals of 1, 3, 5, 15, 45, 90, 180 minutes; 1, 7, 14 days; and 1, 2, 3, and 5 months.

Data set [2] in a line: Cytotoxicity by MTT reduction reported with the MLR assay (Table II). It counts as cell-based. To be noted: cytotoxic when toxicity greater than 25%. As for the experimental part: Potential cytotoxicity of the test samples was assessed by the measurement of their effect on the reduction of MTT (3-[4,5-Dimethylthiazole-2-yl]-2,5-diphenyltetrazolium bromide) by cultured cells. MTT, a yellow-colored compound, is reduced by mitochondrial enzymes to form the purple crystalline reduction product formazane, providing an index of cellular respiration on viable cells as well as a sensitive assay for cytotoxicity (Mossmann, 1983).
The cytotoxicity was assessed in cultured human PBMC and mouse thymocytes. A stock solution of MTT (Sigma) at 5 mg/ml in phosphate buffered saline, pH 7.4, was prepared and stored in the dark at 4° C. PBMCs or thymocytes were cultured with various concentrations of test samples in flatbottom 96-well tissue culture plates (Costar) under the same conditions as those described above, but the stimulants (X-35 or IL-1+PHA) were replaced by appropriate medium. Untreated cells with medium alone and without the test samples were used as controls. After incubation for 21 hours, 25 μl of MTT solution was added to each well. After an additional three hours of incubation, the experiment was terminated by addition of a solution of 10% sodium dodecyl sulfate in 0.01 N HCl. Following overnight incubation at 37° C. to solubilize the formazane crystals, optical density was determined at 570-650 nm in microplate reader. […]

Converted amounts (≈) assume the structure as drawn. “Also recorded” adds a separate entry of the source. Counter-ions that a name gives are not always drawn.

In the case of `CC(C)C12OC1C1OC13C1(C)CCC4=C(COC4=O)C1CC1OC13C2OC(=O)CCC(=O)O` (stereo not shown) [YM-262, Triptolide Succinate], in the data set on testis weight (0.13 mg/kg/day i.p.), the “reduction in testis weight” value is listed as “approximately 13%”. The “decrease in testis weight” value in the data set on testis weight ((as printed) i.p.) was “approximately 13%”. Besides, in the data set with male fertility (0.13 mg/kg/day i.p. over 32 days), the “delay of recovery of fertility after termination of therapy” value stood at 21 days. Moreover, the “reversibility of antifertility effect” value in the data set with male fertility (after cessation of administration) is listed as “the antifertility effect was reversible; also recorded: the control of fertility was reversible”.

As for `CC(C)C12OC1C1OC13C1(C)CCC4=C(COC4=O)C1CC1OC13C2OC(=O)CCC(=O)O` (stereo not shown) [YM-274, Triptolide Succinate Sodium Salt], the “stability in aqueous solution, three months” value in data set [1] (3 months) is given as “no appreciable change in the NMR spectrum; also recorded: unchanged after three months in solution”. The “stability in aqueous solution, five months” value in data set [1] (5 months) is reported as “Some decomposition was apparent; also recorded: some decomposition was observed”.

Consider `CC(C)[C@]12O[C@H]1[C@@H]1O[C@]13[C@]1(O[C@H]1C[C@H]1C4=C(CC[C@@]13C)C(=O)OC4)[C@@H]2O` [Triptolide, triptolide, reference compound], for which the CC50 at 24 h in data set [2] is 0.0133 mg/L (≈ 0.0369 µM).
